Test [1] has as its system human A2A^Δ40R (pHALO-tagged). The format is binding.
Test [2] relates to non-transfected HEK-293T cells. Briefly: ERK1/2 phosphorylation in non-transfected cells. It counts as cell-based, human. The note with it: non-transfected HEK-293T cells (Fig. S1A).
In a further test the target is A2AR (Homo sapiens, UniProt P29274). Briefly: cAMP determination. The note with it: against all agonists (Fig. S8).
Chain of A2AR (P29274 whole entry): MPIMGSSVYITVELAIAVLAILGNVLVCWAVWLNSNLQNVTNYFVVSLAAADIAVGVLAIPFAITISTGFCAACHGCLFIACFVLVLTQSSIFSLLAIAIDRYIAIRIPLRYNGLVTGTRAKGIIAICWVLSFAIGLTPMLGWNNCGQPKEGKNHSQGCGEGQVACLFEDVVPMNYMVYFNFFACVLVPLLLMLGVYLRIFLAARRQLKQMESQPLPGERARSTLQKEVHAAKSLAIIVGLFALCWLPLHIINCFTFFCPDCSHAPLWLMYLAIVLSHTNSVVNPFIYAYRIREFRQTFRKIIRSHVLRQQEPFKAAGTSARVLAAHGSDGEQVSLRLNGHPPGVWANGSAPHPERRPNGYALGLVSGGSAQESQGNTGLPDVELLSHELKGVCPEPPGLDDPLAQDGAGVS

As for `CCNC(=O)[C@H]1O[C@@H](n2cnc3c(N)nc(NCCc4ccc(CCC(=O)O)cc4)nc32)[C@H](O)[C@@H]1O` [CGS-21680], in test [1], the “ΔΔG (binding free energy difference between wild type and truncated receptor)” value is 0.5 kcal/mol. In test [2], the “ERK1/2 phosphorylation vs basal” value is “not significantly different to the basal condition”. Consider `Nc1nc2c(cnn2CCc2ccccc2)c2nc(-c3ccco3)nn12` [SCH-58261], for which the “effect of antagonist on agonist-induced cAMP production” value at A2AR was “blockade of cAMP production”.

These data come from article PMC7550916 (Computational and Structural Biotechnology Journal, 2020).
